Test results taken from patent publication US11524968B2, “Heterocyclic compound as a protein kinase inhibitor” (HK inno.N Corporation, priority 2017, dated 2022).

Biological target: JAK1 (Homo sapiens (Human), UniProt P23458)
Assay: Analysis of JAK1 activity inhibition ability (ADP-Glo Kinase Assay)
Format: biochemical
Conditions: JAK1 enzyme, ADP-Glo luminescence, ATP 250 uM, IRS-itide substrate, 30° C. 40 minutes; read-out: IC50
Summary of the method: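 ADP-Glo luminescence read-out of ADP production, with IC50 taken as the concentration halving JAK1 activity relative to control. Enzyme was incubated 40 min at 30 °C with compound, IRS-itide (40 ng/mL) and ATP (250 uM), concentrations as prepared in pH 7.5 Tris-HCl/MgCl2/BSA/DTT buffer.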

Sequence of JAK1 (P23458 whole entry): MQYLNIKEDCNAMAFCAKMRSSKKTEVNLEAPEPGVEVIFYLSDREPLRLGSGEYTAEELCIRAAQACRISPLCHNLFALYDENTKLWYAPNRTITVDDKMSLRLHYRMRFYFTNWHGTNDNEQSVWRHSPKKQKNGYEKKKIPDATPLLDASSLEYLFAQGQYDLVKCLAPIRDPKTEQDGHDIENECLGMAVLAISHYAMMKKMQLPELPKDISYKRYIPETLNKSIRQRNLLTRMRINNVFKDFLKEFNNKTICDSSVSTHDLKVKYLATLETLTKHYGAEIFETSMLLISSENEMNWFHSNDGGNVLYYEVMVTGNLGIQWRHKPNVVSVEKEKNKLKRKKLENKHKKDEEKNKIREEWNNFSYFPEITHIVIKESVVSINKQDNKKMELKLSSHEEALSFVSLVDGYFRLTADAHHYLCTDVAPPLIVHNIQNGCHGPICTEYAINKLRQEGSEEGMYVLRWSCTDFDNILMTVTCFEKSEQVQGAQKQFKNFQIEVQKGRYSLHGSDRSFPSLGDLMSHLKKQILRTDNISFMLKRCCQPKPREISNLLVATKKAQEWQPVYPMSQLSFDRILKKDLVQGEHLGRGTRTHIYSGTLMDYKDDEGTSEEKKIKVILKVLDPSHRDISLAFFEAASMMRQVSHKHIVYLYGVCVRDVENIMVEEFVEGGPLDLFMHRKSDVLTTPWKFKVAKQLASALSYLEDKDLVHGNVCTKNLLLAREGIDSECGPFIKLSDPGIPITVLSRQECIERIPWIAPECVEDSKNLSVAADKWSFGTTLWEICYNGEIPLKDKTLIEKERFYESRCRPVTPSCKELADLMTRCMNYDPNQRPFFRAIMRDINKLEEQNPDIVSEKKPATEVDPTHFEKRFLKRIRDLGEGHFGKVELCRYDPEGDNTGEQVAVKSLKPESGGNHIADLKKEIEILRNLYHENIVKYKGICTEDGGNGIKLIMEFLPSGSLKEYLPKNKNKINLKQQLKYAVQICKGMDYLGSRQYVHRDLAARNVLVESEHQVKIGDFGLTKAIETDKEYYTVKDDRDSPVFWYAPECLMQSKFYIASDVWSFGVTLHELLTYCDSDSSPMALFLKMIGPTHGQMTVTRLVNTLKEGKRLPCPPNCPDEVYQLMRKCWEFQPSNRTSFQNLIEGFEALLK

IC50 [nM]	Structure (SMILES)
> 200	O=C(Nc1cc(C2=CCC(NC3CCN(C(=O)C4CCCCC4)CC3)CC2)c2cc[nH]c2n1)C1CC1 (stereo not drawn) [Example 492, N-(4-(4-((1-(cyclohexanecarbonyl)piperidin-4-yl)amino)cyclohex-1-en-1-yl)-1H-pyrrolo[2,3-b]pyridin-6-yl)cyclopropanecarboxamide]
20 to 200	O=C(Nc1cc(C2=CCC(NC3CCN(C(=O)c4ccnc(F)c4)CC3)CC2)c2cc[nH]c2n1)C1CC1 (stereo not drawn) [Example 493, N-(4-(4-((1-(2-fluoroisonicotinoyl)piperidin-4-yl)amino)cyclohex-1-en-1-yl)-1H-pyrrolo[2,3-b]pyridin-6-yl)cyclopropanecarboxamide]
> 200	O=C(Nc1cc(C2=CCC(NC3CCN(C(=O)c4ccc([N+](=O)[O-])cc4)CC3)CC2)c2cc[nH]c2n1)C1CC1 (stereo not drawn) [Example 494, N-(4-(4-((1-(4-nitrobenzoyl)piperidin-4-yl)amino)cyclohex-1-en-1-yl)-1H-pyrrolo[2,3-b]pyridin-6-yl)cyclopropanecarboxamide]
20 to 200	O=C(Nc1cc(C2=CCC(NC3CN(C(=O)c4cc(F)cc(F)c4)C3)CC2)c2cc[nH]c2n1)C1CC1 (stereo not drawn) [Example 495, N-(4-(4-((1-(3,5-difluorobenzoyl)azetidin-3-yl)amino)cyclohex-1-en-1-yl)-1H-pyrrolo[2,3-b]pyridin-6-yl)cyclopropanecarboxamide]
> 200	O=C(Nc1cc(C2=CCC(NC3CN(C(=O)c4ccnc(F)c4)C3)CC2)c2cc[nH]c2n1)C1CC1 (stereo not drawn) [Example 496, N-(4-(4-((1-(2-fluoroisonicotinoyl)azetidin-3-yl)amino)cyclohex-1-en-1-yl)-1H-pyrrolo[2,3-b]pyridin-6-yl)cyclopropanecarboxamide]
20 to 200	COc1cc(C(=O)N2CC(NC3CC=C(c4cc(NC(=O)C5CC5)nc5[nH]ccc45)CC3)C2)ccn1 (stereo not drawn) [Example 497, N-(4-(4-((1-(2-methoxyisonicotinoyl)azetidin-3-yl)amino)cyclohex-1-en-1-yl)-1H-pyrrolo[2,3-b]pyridin-6-yl)cyclopropanecarboxamide]
20 to 200	O=C(Nc1cc(-c2ccc(NC3CCN(C(=O)Nc4ccccc4)CC3)c(F)c2)c2cc[nH]c2n1)C1CC1 [Example 498, 4-((4-(6-(cyclopropanecarboxamido)-1H-pyrrolo[2,3-b]pyridin-4-yl)-2-fluorophenyl)amino)-N-phenylpiperidine-1-carboxamide]
> 200	O=C(Nc1cc(-c2ccc(NC3CCN(C(=O)c4cc(F)cc(F)c4)CC3)c(F)c2)c2cc[nH]c2n1)C1CC1 [Example 499, N-(4-(4-((1-(3,5-difluorobenzoyl)piperidin-4-yl)amino)-3-fluorophenyl)-1H-pyrrolo[2,3-b]pyridin-6-yl)cyclopropanecarboxamide]
> 200	O=C(Nc1cc(-c2ccc(NC3CCN(C(=O)c4ccnc(F)c4)CC3)c(F)c2)c2cc[nH]c2n1)C1CC1 [Example 500, N-(4-(3-fluoro-4-((1-(2-fluoroisonicotinoyl)piperidin-4-yl)amino)phenyl)-1H-pyrrolo[2,3-b]pyridin-6-yl)cyclopropanecarboxamide]
20 to 200	O=C(Nc1cc(-c2ccc(NC3CCN(C(=O)Nc4ccc(F)cc4F)CC3)c(F)c2)c2cc[nH]c2n1)C1CC1 [Example 501, 4-((4-(6-(cyclopropanecarboxamido)-1H-pyrrolo[2,3-b]pyridin-4-yl)-2-fluorophenyl)amino)-N-(2,4-difluorophenyl)piperidine-1-carboxamide]
> 200	C[C@H]1CC(Nc2ccc(-c3cc(NC(=O)C4CC4)nc4[nH]ccc34)cc2)CCN1C(=O)c1cc(F)cc(F)c1 (stereo partly drawn) [Example 502, N-(4-(4-(((2S)-1-(3,5-difluorobenzoyl)-2-methylpiperidin-4-yl)amino)phenyl)-1H-pyrrolo[2,3-b]pyridin-6-yl)cyclopropanecarboxamide]
> 200	C[C@H]1CC(Nc2ccc(-c3cc(NC(=O)C4CC4)nc4[nH]ccc34)cc2)CCN1C(=O)c1ccnc(F)c1 (stereo partly drawn) [Example 503, N-(4-(4-(((2S)-1-(2-fluoroisonicotinoyl)-2-methylpiperidin-4-yl)amino)phenyl)-1H-pyrrolo[2,3-b]pyridin-6-yl)cyclopropanecarboxamide]
> 200	C[C@H]1CC(Nc2ccc(-c3cc(NC(=O)C4CC4)nc4[nH]ccc34)cc2)CCN1C(=O)NCC(F)(F)F (stereo partly drawn) [Example 504, (2S)-4-((4-(6-(cyclopropanecarboxamido)-1H-pyrrolo[2,3-b]pyridin-4-yl)phenyl)amino)-2-methyl-N-(2,2,2-trifluoroethyl)piperidine-1-carboxamide]
20 to 200	O=C(Nc1cc(-c2ccc(NC3CCN(C(=O)NCC(F)(F)F)CC3)c(F)c2)c2cc[nH]c2n1)C1CC1 [Example 505, 4-((4-(6-(cyclopropanecarboxamido)-1H-pyrrolo[2,3-b]pyridin-4-yl)-2-fluorophenyl)amino)-N-(2,2,2-trifluoroethyl)piperidine-1-carboxamide]
20 to 200	C[C@H]1CC(Nc2ccc(-c3cc(NC(=O)C4CC4)nc4[nH]ccc34)cc2)CCN1C(=O)Nc1ccc(F)cc1F (stereo partly drawn) [Example 506, (2S)-4-((4-(6-(cyclopropanecarboxamido)-1H-pyrrolo[2,3-b]pyridin-4-yl)phenyl)amino)-N-(2,4-difluorophenyl)-2-methylpiperidine-1-carboxamide]
> 200	O=C(Nc1cc(-c2ccc(NC3CCN(C(=O)c4ccncc4)CC3)cc2)c2cc[nH]c2n1)C1CC1 [Example 507, N-(4-(4-((1-isonicotinoylpiperidin-4-yl)amino)phenyl)-1H-pyrrolo[2,3-b]pyridin-6-yl)cyclopropanecarboxamide]
> 200	O=C(Nc1cc(-c2ccc(NC3CCN(C(=O)c4cc(F)cc(F)c4)CC3)cc2)c2cc[nH]c2n1)C1CC1 [Example 508, N-(4-(4-((1-(3,5-difluorobenzoyl)piperidin-4-yl)amino)phenyl)-1H-pyrrolo[2,3-b]pyridin-6-yl)cyclopropanecarboxamide]
> 200	O=C(Nc1cc(-c2ccc(NC3CCN(C(=O)c4ccnc(F)c4)CC3)cc2)c2cc[nH]c2n1)C1CC1 [Example 509, N-(4-(4-((1-(2-fluoroisonicotinoyl)piperidin-4-yl)amino)phenyl)-1H-pyrrolo[2,3-b]pyridin-6-yl)cyclopropanecarboxamide]
> 200	O=C(Nc1cc(-c2ccc(NC3CN(C(=O)c4cc(F)cc(F)c4)C3)cc2)c2cc[nH]c2n1)C1CC1 [Example 510, N-(4-(4-((1-(3,5-difluorobenzoyl)azetidin-3-yl)amino)phenyl)-1H-pyrrolo[2,3-b]pyridin-6-yl)cyclopropanecarboxamide]
20 to 200	O=C(Nc1cc(-c2ccc(NC3CCN(C(=O)Nc4ccc(F)cc4F)CC3)cc2)c2cc[nH]c2n1)C1CC1 [Example 511, 4-((4-(6-(cyclopropanecarboxamido)-1H-pyrrolo[2,3-b]pyridin-4-yl)phenyl)amino)-N-(2,4-difluorophenyl)piperidine-1-carboxamide]
20 to 200	O=C(Nc1cc(-c2ccc(NC3CCN(C(=O)NCC(F)(F)F)CC3)cc2)c2cc[nH]c2n1)C1CC1 [Example 512, 4-((4-(6-(cyclopropanecarboxamido)-1H-pyrrolo[2,3-b]pyridin-4-yl)phenyl)amino)-N-(2,2,2-trifluoroethyl)piperidine-1-carboxamide]
> 200	O=C(Nc1cc(-c2ccc(NC3CN(C(=O)Nc4ccc(F)cc4F)C3)cc2)c2cc[nH]c2n1)C1CC1 [Example 513, 3-((4-(6-(cyclopropanecarboxamido)-1H-pyrrolo[2,3-b]pyridin-4-yl)phenyl)amino)-N-(2,4-difluorophenyl)azetidine-1-carboxamide]
> 200	O=C(Nc1cc(-c2ccc(NC3CN(C(=O)NCC(F)(F)F)C3)cc2)c2cc[nH]c2n1)C1CC1 [Example 514, 3-((4-(6-(cyclopropanecarboxamido)-1H-pyrrolo[2,3-b]pyridin-4-yl)phenyl)amino)-N-(2,2,2-trifluoroethyl)azetidine-1-carboxamide]
20 to 200	N#CCC(=O)N1CC(Nc2ccc(-c3cc(NC(=O)C4CC4)nc4[nH]ccc34)cc2)C1 [Example 515, N-(4-(4-((1-(2-cyanoacetyl)azetidin-3-yl)amino)phenyl)-1H-pyrrolo[2,3-b]pyridin-6-yl)cyclopropanecarboxamide]
20 to 200	N#CCC(=O)N1CCC(Nc2ccc(-c3cc(NC(=O)C4CC4)nc4[nH]ccc34)cc2)CC1 [Example 516, N-(4-(4-((1-(2-cyanoacetyl)piperidin-4-yl)amino)phenyl)-1H-pyrrolo[2,3-b]pyridin-6-yl)cyclopropanecarboxamide]
20 to 200	O=C(Nc1cc(-c2ccc(NC3CN(C(=O)CC(F)(F)F)C3)cc2)c2cc[nH]c2n1)C1CC1 [Example 517, N-(4-(4-((1-(3,3,3-trifluoropropanoyl)azetidin-3-yl)amino)phenyl)-1H-pyrrolo[2,3-b]pyridin-6-yl)cyclopropanecarboxamide]
> 200	O=C(Nc1cc(-c2ccc(NC3CCN(C(=O)CC(F)(F)F)CC3)cc2)c2cc[nH]c2n1)C1CC1 [Example 518, N-(4-(4-((1-(3,3,3-trifluoropropanoyl)piperidin-4-yl)amino)phenyl)-1H-pyrrolo[2,3-b]pyridin-6-yl)cyclopropanecarboxamide]
> 200	N#CCC(=O)c1ccc(-c2cc(NC(=O)C3CC3)nc3[nH]ccc23)cc1 [Example 519, N-(4-(4-(2-cyanoacetyl)phenyl)-1H-pyrrolo[2,3-b]pyridin-6-yl)cyclopropanecarboxamide]
> 200	O=C(Nc1cc(-c2ccc(C(=O)N3CCS(=O)(=O)CC3)cc2)c2cc[nH]c2n1)C1CC1 [Example 520, N-(4-(4-(1,1-dioxidothiomorpholine-4-carbonyl)phenyl)-1H-pyrrolo[2,3-b]pyridin-6-yl)cyclopropanecarboxamide]
20 to 200	O=C(Nc1cc(-c2ccc(C(=O)N3CCSCC3)cc2)c2cc[nH]c2n1)C1CC1 [Example 521, N-(4-(4-(thiomorpholine-4-carbonyl)phenyl)-1H-pyrrolo[2,3-b]pyridin-6-yl)cyclopropanecarboxamide]
